Experimental data published in PMC7619385 (ACS infectious diseases, 2025).
Like-named read-outs stand apart in the source and are kept apart here.

Experiments:
[1] = target: NLuc::LmxCLK1 (Leishmania mexicana, UniProt E9AMP2); experiment: cell-based; format: cell-based; conditions: for Target occupancy Run 1 / Target occupancy Run 2 / Target occupancy Average: 10 µM compound, tracer SV366, promastigotes; for Target occupancy Average: mean of two experiments
Procedure: All compounds were tested at a fixed concentration of 10 µM to enable direct comparison of their target occupancy in live cells.
Serially diluted probes (5 µL) were added to 85 µL of cells in culture media or 85 µL of purified protein. Final well volumes were adjusted to 100 µL with sterile Opti-MEM™ I Reduced Serum Medium (Thermo-Scientific) – for wells containing cells; or Kinase Buffer - for wells containing purified protein. For tracer displacement assays, samples were prepared as above, but final volume was brought to 100 µL by addition of vehicle or serially-diluted test compounds. Final DMSO concentration in these assays was 1%. […] Light emissions at 460+10 nm (BRET donor) and at 610+20 nm (BRET acceptor) were sequentially recorded (integration time = 0.5 s, gain = 3600) using a luminometer (BMG LABTECH Clariostar or Biotek Synergy HT). BRET values are reported in milli-BRET (mBRET) units (mBU), obtained by dividing the acceptor luminescence by the donor luminescence and multiplying the result by a factor of 1,000. BRET values were converted to blank-corrected probe occupancies (%) according to equation [1]: (1) Probeoccupancy(%)=X−Z/Y−Z×100 where X = mBRET value in the presence of the test compound and the probe, Y = mBRET value in the presence of probe only, and Z = mBRET value in the absence of probe and test compound. […]

[2] = target: T1, LmxCLK1 (Leishmania mexicana, UniProt E9AMP2); experiment: biochemical; format: binding
T1 sequence (E9AMP2 1-422): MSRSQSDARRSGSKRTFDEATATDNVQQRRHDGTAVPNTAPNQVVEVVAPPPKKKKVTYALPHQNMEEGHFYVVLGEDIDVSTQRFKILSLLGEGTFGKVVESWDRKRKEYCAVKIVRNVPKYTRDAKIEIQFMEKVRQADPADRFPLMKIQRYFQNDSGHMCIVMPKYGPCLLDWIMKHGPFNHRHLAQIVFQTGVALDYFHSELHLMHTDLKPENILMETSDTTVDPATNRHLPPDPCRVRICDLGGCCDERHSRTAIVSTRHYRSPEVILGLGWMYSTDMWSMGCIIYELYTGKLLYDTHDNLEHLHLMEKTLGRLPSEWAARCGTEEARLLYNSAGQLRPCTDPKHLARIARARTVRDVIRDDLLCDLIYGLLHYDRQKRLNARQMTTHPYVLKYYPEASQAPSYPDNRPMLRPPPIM

[3] = read-out: Target occupancy Average
[4] = read-out: Target occupancy Run 1
[5] = read-out: Target occupancy Run 2
[6] = DSF, 10 µM compound, 2 µM LmxCLK1, Run 1, read-out: ΔTm Run 1
[7] = DSF, 10 µM compound, 2 µM LmxCLK1, Run 2, read-out: ΔTm Run 2
[8] = DSF, 10 µM compound, 2 µM LmxCLK1, mean of two runs, read-out: ΔTm Average
[9] = DSF, 10 µM compound, 2 µM LmxCLK1, Run 1
[10] = DSF, 10 µM compound, 2 µM LmxCLK1, Run 2
[11] = DSF, 10 µM compound, 2 µM LmxCLK1, mean of two runs

Structure (SMILES)	ΔTm at 10 µM [2, 6] [°C]	ΔTm at 10 µM [2, 7] [°C]	ΔTm at 10 µM [2, 8] [°C]	Target occupancy Run 1 [1] [%]	Target occupancy Run 2 [1] [%]	Target occupancy Average [1]	ΔTm Run 1 [2, 9] [°C]	ΔTm Run 2 [2, 10] [°C]	ΔTm Average [2, 11] [°C]	other results
CNC(=O)c1cccc(-c2ccc3c(N4CCOC[C@@H]4C)nc(N4CCOC[C@@H]4C)nc3n2)c1 [AZD2014]	0.3	-0.3	0							receptor occupancy at 10 µM [1, 3]: -1.4%; receptor occupancy at 10 µM [1, 4]: 8.9%; receptor occupancy at 10 µM [1, 5]: -11.6%
CC(C)(C)c1nc(-c2cccc(NS(=O)(=O)c3c(F)cccc3F)c2F)c(-c2ccnc(N)n2)s1 [Dabrafenib (GSK2118436)]				0.7	-7.9	-3.6%	-0.2	0.0	-0.1	
CCOc1cc2ncc(C#N)c(Nc3ccc(F)c(Cl)c3)c2cc1NC(=O)/C=C/CN(C)C [Pelitinib (EKB-569), Pelitinib]	9.1	12.5	10.8 ± 1.7			negligible target engagement				
N[C@@H]1CCCN(c2c(/C=C3\SC(=O)NC3=O)cccc2-c2ccccc2)C1 [AZD1208]				5.0	-7.9	-1.4%	0.1	-0.4	-0.1	
NC(=O)c1cccc(-c2cc(Nc3ccc(OC(F)(F)F)cc3)ncn2)c1 [GNF-2]				-8.5	-14.2	-11.3%				ΔTm Average [2]: -0.2; ΔTm Run 1 [2]: -0.2; ΔTm Run 2 [2]: -0.3
O=C1NC(=O)C(=Cc2ccc(-c3ccc(F)cc3)o2)S1 [CAY10505]				-12.3	10.0	-1.2%	0.1	-0.1	0.0	
CS(=O)(=O)c1ccc(-c2cnc(N)c(C(=O)Nc3ccccc3)n2)cc1 [VE-821]	-0.2	-0.5	-0.4							receptor occupancy at 10 µM [1, 3]: -2.9%; receptor occupancy at 10 µM [1, 4]: -11.1%; receptor occupancy at 10 µM [1, 5]: 5.3%
CC(C)N(CCC(=O)c1ccc2ccccc2c1)Cc1ccccc1.Cl [ZM 39923 HCl]				0.2	-18.8	-9.3%	0.0	-0.3	-0.2	
COC(=O)c1ccc2c(c1)NC(=O)/C2=C(\Nc1ccc(N(C)C(=O)CN2CCN(C)CC2)cc1)c1ccccc1 [Nintedanib (BIBF 1120)]				-1.8	-11.3	-6.6%	0.3	0.2	0.2	
Cc1ccc(NC(=O)c2cccc(N(C)C)c2)cc1NC(=O)c1ccc(O)cc1 [ZM 336372]				-4.5	-6.5	-5.5%	-0.1	-0.5	-0.3	
CCNc1nc(Nc2cc(F)c(C(=O)N3CCOCC3)cc2OC)ncc1C(F)(F)F [GNE-7915]	-0.1	-0.5	-0.3							receptor occupancy at 10 µM [1, 3]: -3.7%; receptor occupancy at 10 µM [1, 4]: -10.5%; receptor occupancy at 10 µM [1, 5]: 3.1%
Cl.O=S(=O)(c1cccc2cnccc12)N1CCCNCC1 [Fasudil (HA-1077) HCl]				6.9	-10.2	-1.7%	0.9	0.6	0.7	
Cc1[nH]c(/C=C2\C(=O)Nc3ccc(S(=O)(=O)N(C)c4cccc(Cl)c4)cc32)c(C)c1C(=O)N1CCN(C)CC1 [SU11274]	-0.1	-0.2	-0.2							receptor occupancy at 10 µM [1, 3]: -6.7%; receptor occupancy at 10 µM [1, 4]: -7.3%; receptor occupancy at 10 µM [1, 5]: -6%
O=C(O)c1ccc(-c2c[nH]c3ncc(-c4ccccc4)cc23)cc1C1CCCC1 [GSK650394]	-0.4	-0.3	-0.3							receptor occupancy at 10 µM [1, 3]: -8.8%; receptor occupancy at 10 µM [1, 4]: -24.3%; receptor occupancy at 10 µM [1, 5]: 6.7%
Cc1ccc(S(=O)(=O)/C=C/C#N)cc1 [BAY 11-7082]				-17.1	-14.7	-15.9%	-0.4	-0.2	-0.3	
O=C(NC1CCNCC1)c1[nH]ncc1NC(=O)c1c(Cl)cccc1Cl [AT7519]	0.4	0.5	0.4							receptor occupancy at 10 µM [1, 3]: -13.8%; receptor occupancy at 10 µM [1, 4]: 6.4%; receptor occupancy at 10 µM [1, 5]: -34%

Structure (SMILES)	ΔTm at 10 µM [2, 6] [°C]	ΔTm at 10 µM [2, 7] [°C]	ΔTm at 10 µM [2, 8] [°C]	Target occupancy Run 1 [1] [%]	Target occupancy Run 2 [1] [%]	Target occupancy Average [1]	ΔTm Run 1 [2, 9] [°C]	ΔTm Run 2 [2, 10] [°C]	ΔTm Average [2, 11] [°C]	other results
O=C(NOCC1CC1)c1ccc(F)c(F)c1Nc1ccc(I)cc1Cl [PD184352 (CI-1040)]				-2.3	-19.9	-11.1%	0.1	0.1	0.1	
O=C1Nc2ccc(I)cc2/C1=C/c1cc(Br)c(O)c(Br)c1 [GW5074]				-7.5	-6.2	-6.8%	0.0	-0.4	-0.2	
COc1cc2ncnc(Oc3cccc(NC(=O)Nc4cc(C(C)(C)C(F)(F)F)on4)c3)c2cc1OC [CEP-32496]	-0.4	-0.2	-0.3							receptor occupancy at 10 µM [1, 3]: -3.7%; receptor occupancy at 10 µM [1, 4]: -2.2%; receptor occupancy at 10 µM [1, 5]: -5.2%
CCN1/C(=C/C(C)=O)Sc2ccc(OC)cc21 [TG003]				10.1	-15.2	-2.5%	1.4	1.2	1.3	
CN(C[C@@H]1COCCO1)S(=O)(=O)Nc1ccc2ccc3ncc(-c4cnn(C)c4)cc3c(=O)c2c1 [MK-2461]	0	0.2	0.1							receptor occupancy at 10 µM [1, 3]: -2.7%; receptor occupancy at 10 µM [1, 4]: -9.3%; receptor occupancy at 10 µM [1, 5]: 3.8%
C[C@H](Nc1ncnc2nc[nH]c12)c1cc2cccc(Cl)c2c(=O)n1-c1ccccc1 [IPI-145 (INK1197)]				-2.8	0.6	-1.1%				
Cc1ncc(-c2ccnc(Nc3ccc(S(C)(=O)=O)cc3)n2)n1C(C)C [AZD5438]	1.2	0.8	1							
CC1(C)CNc2cc(NC(=O)c3cccnc3NCc3ccncc3)ccc21.O=P(O)(O)O.O=P(O)(O)O [Motesanib Diphosphate (AMG-706)]							0.3	0.1	0.2	
O=C(NOCC(O)CO)c1cc(Br)c(F)c(F)c1Nc1ccc(I)cc1F (stereo not shown) [PD318088]							0.4	0.1	0.2	
Cn1cnc2c(F)c(Nc3ccc(Br)cc3Cl)c(C(=O)NOCCO)cc21 [Selumetinib (AZD6244)]	0.3	0.3	0.3							
CNC(=O)c1cc(Oc2ccc(NC(=O)Nc3ccc(Cl)c(C(F)(F)F)c3)cc2)ccn1 [Sorafenib]							-0.3	0.2	-0.1	
COc1ccc(-c2nc(N3CCOCC3)c3sc(CN(C)c4ncc(C(=O)NO)cn4)cc3n2)cn1 [CUDC-907]	0.3	-0.2	0							
CC(C)(C)c1cnc(CSc2cnc(NC(=O)C3CCNCC3)s2)o1 [SNS-032 (BMS-387032)]							0.2	0.0	0.1	
Cc1cc(Nc2cc(CN3CCOCC3)c3nc(C)c(Cc4ccc(Cl)cc4F)n3n2)n[nH]1 [LY2784544]	-0.3	-0.4	-0.4							
OCCn1cc(-c2ccc3c(c2)CC/C3=N\O)c(-c2ccncc2)n1 [GDC-0879]	0	-0.2	-0.1							
